Data on ten compounds can be found in US20210395239A1 (Hoffmann-La Roche Inc., priority 2018, published 2021).

Each structure is given as a SMILES string.

This assay addresses T1, human TLR7 (Homo sapiens, UniProt Q9NYK1).
T1 construct: host or cells: HEK293 (HEK-Blue hTLR7)
T1 sequence (Q9NYK1 27-1049): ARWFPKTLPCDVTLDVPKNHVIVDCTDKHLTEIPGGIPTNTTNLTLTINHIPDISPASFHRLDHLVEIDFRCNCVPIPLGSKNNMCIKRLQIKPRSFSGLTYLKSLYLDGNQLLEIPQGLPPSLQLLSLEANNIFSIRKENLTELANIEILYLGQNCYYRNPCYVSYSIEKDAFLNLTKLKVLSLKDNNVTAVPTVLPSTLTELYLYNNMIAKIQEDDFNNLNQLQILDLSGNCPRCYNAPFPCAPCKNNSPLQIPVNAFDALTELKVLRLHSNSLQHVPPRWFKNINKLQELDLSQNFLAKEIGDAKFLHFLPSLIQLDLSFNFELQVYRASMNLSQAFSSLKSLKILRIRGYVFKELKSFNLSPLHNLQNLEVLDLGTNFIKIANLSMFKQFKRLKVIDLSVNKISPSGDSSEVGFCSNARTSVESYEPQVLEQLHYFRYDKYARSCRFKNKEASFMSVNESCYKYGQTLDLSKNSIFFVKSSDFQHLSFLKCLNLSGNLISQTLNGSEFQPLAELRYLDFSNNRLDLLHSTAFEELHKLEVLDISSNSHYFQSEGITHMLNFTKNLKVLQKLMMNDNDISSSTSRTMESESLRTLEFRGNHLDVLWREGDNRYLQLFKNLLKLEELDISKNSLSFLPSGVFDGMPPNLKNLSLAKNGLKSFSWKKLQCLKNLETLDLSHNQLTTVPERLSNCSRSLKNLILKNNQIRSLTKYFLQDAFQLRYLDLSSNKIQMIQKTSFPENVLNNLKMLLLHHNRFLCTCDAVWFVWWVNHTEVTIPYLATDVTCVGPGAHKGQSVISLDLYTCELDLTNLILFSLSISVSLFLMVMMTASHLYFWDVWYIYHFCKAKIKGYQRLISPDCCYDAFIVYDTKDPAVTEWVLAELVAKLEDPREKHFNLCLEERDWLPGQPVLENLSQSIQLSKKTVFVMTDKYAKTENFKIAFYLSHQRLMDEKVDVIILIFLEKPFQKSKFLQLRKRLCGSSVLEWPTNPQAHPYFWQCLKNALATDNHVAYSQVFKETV
Kind of assay: HEK293-Blue-hTLR-7 cells assay (SEAP reporter, R848 stimulation). The following applies: HEK293-Blue-hTLR7 cells, R848, 20 hrs; read-out: HEK/hTLR7 IC50. Format: cell-based. The method in brief: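 HEK293-Blue-hTLR7 cells (NF-κB/AP-1-driven SEAP reporter) were stimulated with R848 alongside serially diluted compound at 1% final DMSO for 20 h at 37 °C. Supernatant SEAP was then developed with QUANTI-Blue for 2 h at 37 °C and absorbance read at 620–655 nm; antagonism is measured as reduced reporter signal.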
For `C[C@@H]1CN(c2ccc(C#N)c3ncccc23)C[C@H](CN2CCN(c3ccnc(N4C[C@@H](F)[C@@H](N)C4)n3)CC2)O1` [Example 95, 5-[(2S,6R)-2-[[4-[2-[(3S,4R)-3-amino-4-fluoro-pyrrolidin-1-yl]pyrimidin-4-yl]piperazin-1-yl]methyl]-6-methyl-morpholin-4-yl]quinoline-8-carbonitrile], the IC50 was 7 nM.

Take `CO[C@H]1CN(c2cc(C)nc(N3CCN(C[C@H]4CN(c5ccc(C#N)c6nccnc56)C[C@@H](C)O4)CC3)n2)C[C@H]1N` [Example 122, 8-[(2S,6R)-2-[[4-[4-[(3R,4S)-3-amino-4-methoxy-pyrrolidin-1-yl]-6-methyl-pyrimidin-2-yl]piperazin-1-yl]methyl]-6-methyl-morpholin-4-yl]quinoxaline-5-carbonitrile]: the IC50 turned out to be 5 nM.

Turning to `C[C@@H]1CN(c2ccc(C#N)c3nccnc23)C[C@H](CN2CCN(c3ccnc(N4CC[C@@H](N)[C@H](F)C4)n3)CC2)O1` [Example 113, 8-[(2S,6R)-2-[[4-[2-[(3R,4R)-4-amino-3-fluoro-1-piperidyl]pyrimidin-4-yl]piperazin-1-yl]methyl]-6-methyl-morpholin-4-yl]quinoxaline-5-carbonitrile], the IC50 came to 8 nM.

Regarding `C[C@@H]1CN(c2ccc(C#N)n3nccc23)C[C@H](CN2CC(c3ccc(N4CC(C)(N)C4)nc3)C2)O1` [Example 157, 4-[(2S,6R)-2-[[3-[6-(3-amino-3-methyl-azetidin-1-yl)-3-pyridyl]azetidin-1-yl]methyl]-6-methyl-morpholin-4-yl]pyrazolo[1,5-a]pyridine-7-carbonitrile], the IC50 was determined as 8 nM.

As for `C[C@@H]1CN(c2ccc(C#N)c3ncccc23)C[C@H](CN2CCN(c3ccnc(N4C[C@@H](N)[C@H](F)C4)n3)CC2)O1` [Example 96, 5-[(2S,6R)-2-[[4-[2-[(3R,4R)-3-amino-4-fluoro-pyrrolidin-1-yl]pyrimidin-4-yl]piperazin-1-yl]methyl]-6-methyl-morpholin-4-yl]quinoline-8-carbonitrile], the IC50 is 18 nM.

For the compound `[2H]c1ccc2c(N3C[C@H](CN4CC(c5ccc(N6CC(C)(N)C6)nc5)C4)O[C@H](C)C3)ccc(C#N)c2n1` [Example 138, 5-[(2S,6R)-2-[[3-[6-(3-amino-3-methyl-azetidin-1-yl)-3-pyridyl]azetidin-1-yl]methyl]-6-methyl-morpholin-4-yl]-2-deuterio-quinoline-8-carbonitrile], the IC50 turned out to be 5 nM.

For the compound `COc1cc(N2CCN(C[C@H]3CN(c4ccc(C#N)c5ncccc45)C[C@@H](C)O3)CC2)nc(N2CCNCC2)n1` [Example 91, 5-[(2S,6R)-2-[[4-(6-methoxy-2-piperazin-1-yl-pyrimidin-4-yl)piperazin-1-yl]methyl]-6-methyl-morpholin-4-yl]quinoline-8-carbonitrile], the IC50 came to 13 nM.

As to `CO[C@@H]1CN(c2cc(C)nc(N3CCN(C[C@H]4CN(c5ccc(C#N)c6nccnc56)C[C@@H](C)O4)CC3)n2)C[C@H]1N` [Example 121, 8-[(2S,6R)-2-[[4-[4-[(3R,4R)-3-amino-4-methoxy-pyrrolidin-1-yl]-6-methyl-pyrimidin-2-yl]piperazin-1-yl]methyl]-6-methyl-morpholin-4-yl]quinoxaline-5-carbonitrile], the IC50 was 8 nM.

`C[C@@H]1CN(c2ccc(C#N)c3ncccc23)C[C@H](CN2CCN(c3ccnc(N4C[C@@H](N)[C@@H](F)C4)n3)CC2)O1` [Example 101, 5-[(2S,6R)-2-[[4-[2-[(3R,4S)-3-amino-4-fluoro-pyrrolidin-1-yl]pyrimidin-4-yl]piperazin-1-yl]methyl]-6-methyl-morpholin-4-yl]quinoline-8-carbonitrile]: the IC50 worked out at 11 nM.

For `Cc1ccc(N2C[C@H](CN3CCN(c4ccnc(N5CCN[C@@H](C)C5)n4)CC3)O[C@H](C)C2)c2nccnc12` [Example 127, (2R,6S)-2-methyl-6-[[4-[2-[(3S)-3-methylpiperazin-1-yl]pyrimidin-4-yl]piperazin-1-yl]methyl]-4-(8-methylquinoxalin-5-yl)morpholine], the IC50 worked out at 29 nM.
